For 24 molecules, EC50 results are on record in patent publication US20100160369A1, “S1P1 Agonists and Methods of Making And Using” (EXELIXIS, INC., priority 2008, published 2010).

The experiment concerns the target S1P1 (Homo sapiens, UniProt P21453). The experiment is described as follows: CNG cAMP Assay (Assay 1). Details: host or cells: HEK293 cells expressing the CNG channel. The class given is cell-based. How it is done:
Frozen HEK293 cells expressing the CNG channel and S1P1 (BD Biosciences, San Jose, Calif.) were thawed and plated into the wells of a black, clear bottom, 384-well CellBind plate (Corning, Corning, N.Y.) at 14,000 cells per well. HEK293 cells expressing the CNG channel and CB1 (BD Biosciences) were cultured and plated under the same conditions. The cells were incubated for 16 h at 37° C. in complete DMEM medium (Invitrogen Carlsbad, Calif.) containing 10% FBS (HyClone Logan, Utah), 250 μg/mL geneticin (Invitrogen), and 1 μg/mL puromycin (Sigma-Aldrich, St. Louis, Mo.). A membrane potential dye (BD Biosciences) was added and the plates were incubated for 2-2.5 h at room temperature.
Test compounds were tested at maximum concentrations of 10 μM. Compounds were diluted in DMSO (10 concentration points, 3-fold each) and added to the assay plate at final DMSO concentrations of 1.8%. For each compound, there were duplicate assay plates and each assay plate had duplicate wells per concentration point. Test compounds were added to the cells in a DPBS solution containing 25 μM Ro 20-1724 (Sigma-Aldrich), 500 nM of the A2b receptor agonist NECA (Sigma-Aldrich) and 10 nM (EC95) of S1P (Avanti Alabaster, Ala.) and incubated for 90 min. The assay plate was read before compound addition (T0) and after the 90 min incubation (T90) using an EnVision plate reader (PerkinElmer, Waltham, Mass.) at an excitation wavelength of 350 nm and an emission wavelength of 590 nm. The T90/T0 ratio was determined for each concentration of the test compounds. The percent agonist activity was determined as [(test compound−DMSO alone control)/(NECA alone control−DMSO alone control)*100]. The percent activities were plotted against compound concentration to determine EC50 using XLFit (IDBS, Alameda, Calif.). The control used for calculating rEC50 in the S1P1 CNG agonist assay was DMSO.
Assay 1 is the CNG cAMP Assay as described in Biological Example 1. Assay 2a and 2b are the Tango™ β-arrestin Recruitment Assay in HEK293 and U2OS cells, respectively, as described in Biological Example 2. Assay 3a is the hS1P1R GTPγS Binding Assay as described in Biological Example 3. Assay 3b is the GTP-Eu Binding Assay as described in Biological Example 3. EC50's were measured unless otherwise noted. […] In the table, “nt” means the Compound was not tested and “no” means the compound was tested but had no measurable activity under the assay conditions employed.

The mark [1] stands for this setting: relative EC50 was measured (footnote 1), read-out: Assay 1 Relative EC50.

Each structure is given as a SMILES string. pEC50: −log10 of the molar value. Read-outs that look alike come from different tables or passages of the source.

Chain of S1P1 (P21453 whole entry): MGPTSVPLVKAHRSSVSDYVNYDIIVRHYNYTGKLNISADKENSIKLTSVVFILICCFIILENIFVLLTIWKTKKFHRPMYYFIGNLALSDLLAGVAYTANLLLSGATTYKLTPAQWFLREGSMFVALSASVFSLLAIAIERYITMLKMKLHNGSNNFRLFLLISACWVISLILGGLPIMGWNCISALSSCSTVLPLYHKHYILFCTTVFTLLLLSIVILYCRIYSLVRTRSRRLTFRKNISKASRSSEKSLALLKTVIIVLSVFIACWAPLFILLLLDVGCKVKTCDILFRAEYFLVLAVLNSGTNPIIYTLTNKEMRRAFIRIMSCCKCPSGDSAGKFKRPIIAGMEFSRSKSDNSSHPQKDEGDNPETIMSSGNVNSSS

Consider `O=C(O)CCc1ccc(-c2noc(-c3cn4cc(C(F)(F)F)cc(Cl)c4n3)n2)c(C(F)(F)F)c1` [Entry 8], for which the pEC50 (read-out: Assay 1 EC50) was not below 7.00. Regarding `NC(Cc1ccc(-c2noc(-c3cn4cc(C(F)(F)F)cc(Cl)c4n3)n2)c(Cl)c1)C(=O)O` (stereo not drawn) [Entry 11], the pEC50 (read-out: Assay 1 EC50) was 6.30 to 7.00. Still for that read-out and setting: the result for `O=C(O)CCc1ccc(-c2noc(-c3cn4cc(C(F)(F)F)cc(Cl)c4n3)n2)cc1` [Entry 22] reads not below 7.00; that for `Cc1cc(-c2noc(-c3cn4cc(C(F)(F)F)cc(Cl)c4n3)n2)ccc1CCC(=O)O` [Entry 23], not below 7.00. With `O=C(O)CCc1cc(Cl)c(-c2noc(-c3cn4ccccc4n3)n2)cc1F` [Entry 27], the pEC50 under setting [1] was 5.00 to 5.30. For `O=C(O)CCc1cc(Cl)c(-c2noc(-c3cn4cccc(Cl)c4n3)n2)cc1F` [Entry 32], for the setting “read-out: Assay 1 EC50”, the pEC50 was 6.30 to 7.00.

For the molecule `Cc1c(Cl)cn2cc(-c3nc(-c4cc(F)c(CCC(=O)O)cc4Cl)no3)nc2c1Cl` [Entry 35], under “read-out: Assay 1 EC50”, the pEC50 is 6.00 to 6.30. Consider `C=CCOc1c(C)cc(-c2noc(-c3cn4cc(C(F)(F)F)cc(Cl)c4n3)n2)cc1C` [Entry 37], for which the pEC50 under setting [1] was 5.00 to 5.30. For the molecule `O=C(O)CCc1cc(Cl)c(-c2noc(-c3cn4cc(F)cc(F)c4n3)n2)cc1F` [Entry 40], under setting [1], the pEC50 was 5.30 to 6.00. For `O=C(O)C1CC1c1ccc(-c2noc(-c3cn4cc(C(F)(F)F)cc(Cl)c4n3)n2)c(F)c1` (stereo not drawn) [Entry 41], the pEC50 (read-out: Assay 1 EC50) is 6.30 to 7.00. With `N#Cc1cc(Cl)c2nc(-c3nc(-c4cc(F)c(CCC(=O)O)cc4Cl)no3)cn2c1` [Entry 48], under “read-out: Assay 1 EC50”, the pEC50 is not below 7.00.

Turning to `COc1cc2nc(-c3nc(-c4cc(F)c(CCC(=O)O)cc4Cl)no3)cn2cc1Cl` [Entry 55], under setting [1], the pEC50 is 5.00 to 5.30. For `O=C(O)C(O)COc1ccc(-c2noc(-c3cn4cc(C(F)(F)F)cc(Cl)c4n3)n2)c(Cl)c1` (stereo not drawn) [Entry 57], the pEC50 (read-out: Assay 1 EC50) was not below 7.00. Turning to `CS(=O)(=O)Nc1cc(Cl)c2nc(-c3nc(-c4cc(F)c(CCC(=O)O)cc4Cl)no3)cn2c1` [Entry 59], the pEC50 under setting [1] is 5.30 to 6.00.

As to `O=C(O)CCc1cc(F)c(-c2noc(-c3cn4cc(C(F)(F)F)cc(Cl)c4n3)n2)cc1F` [Entry 60], the pEC50 (read-out: Assay 1 EC50) is not below 7.00.

For the molecule `Cc1c(Br)cc(Br)c2nc(-c3nc(-c4cc(F)c(CCC(=O)O)cc4Cl)no3)cn12` [Entry 62], the pEC50 (read-out: Assay 1 EC50) was not below 7.00.

Turning to `Fc1cccc(F)c1-c1nnc(-c2cn3cc(C(F)(F)F)cc(Cl)c3n2)o1` [Entry 66], the pEC50 (read-out: Assay 1 EC50) was 6.00 to 6.30. On to `O=C(O)C1CC1c1ccc(-c2noc(-c3cn4cc(C(F)(F)F)cc(Cl)c4n3)n2)c(C(F)(F)F)c1` (stereo not drawn) [Entry 70], for which, where the note is “read-out: Assay 1 EC50”, the pEC50 was 6.30 to 7.00. As to `NC(=O)C1CC1c1ccc(-c2noc(-c3cn4cc(C(F)(F)F)cc(Cl)c4n3)n2)c(Cl)c1` (stereo not drawn) [Entry 72], the pEC50 (read-out: Assay 1 EC50) was not below 7.00. With `FC(F)(F)c1cc(Cl)c2nc(-c3nnc(-c4ccccc4Cl)o3)cn2c1` [Entry 73], for the setting “read-out: Assay 1 EC50”, the pEC50 is not below 7.00. As for `O=C(O)CCc1ccc(Nc2nnc(-c3cn4cc(C(F)(F)F)cc(Cl)c4n3)o2)c(Cl)c1` [Entry 74], under setting [1], the pEC50 is 5.00 to 5.30. On to `O=C(O)C1CC1c1ccc(-c2noc(-c3cn4cc(C(F)(F)F)cc(Cl)c4n3)n2)cc1` (stereo not drawn) [Entry 75], for which the pEC50 under setting [1] was 6.00 to 6.30. Consider `O=C(O)C1CC1c1ccc(-c2noc(-c3cn4cc(C(F)(F)F)cc(Cl)c4n3)n2)cc1F` (stereo not drawn) [Example 78, 2-(4-{5-[8-chloro-6-(trifluoromethyl)imidazo[1,2-a]pyridin-2-yl]-1,2,4-oxadiazol-3-yl}-2-fluorophenyl)cyclopropanecarboxylic acid], for which the pEC50 (read-out: Assay 1 EC50) was 6.30 to 7.00.

With `CC(Oc1cc(Cl)c(-c2noc(-c3cn4cc(C(F)(F)F)cc(Cl)c4n3)n2)cc1F)C(=O)O` (stereo not drawn) [Example 83, 2-[(5-chloro-4-{5-[8-chloro-6-(trifluoromethyl)imidazo[1,2-a]pyridin-2-yl]-1,2,4-oxadiazol-3-yl}-2-fluorophenyl)oxy]propanoic acid], under “read-out: Assay 1 EC50”, the pEC50 was 6.30 to 7.00.

For orientation: pEC50 means the EC50 on a negative log10 scale, so that one unit is a factor of ten.
